Experimental findings from patent US9815794B2, “Inhibition of bacterial biofilms and microbial growth with imidazole derivatives” (North Carolina State University, priority 2011, dated 2017) are described below.

In brackets after ≈: the same amount, converted by molar mass.

Assay [1] concerns E. coli. The assay can be described thus: Broth microdilution MIC. The format is cell-based. The settings on record: Escherichia coli. The procedure:
(§1) Once it was determined that this specific 4,5-disubstitution pattern imparted microbicidal activity onto the 2-AI framework, this activity was quantified by measuring the MIC of each derivative against a variety of representative pathogenic bacterial strains using the microdilution protocol (CSLI, Performance Standards for Antimicrobial Suceptibility Testing; Nineteenth Informational Supplement, Clinical and Laboratory Standards Institute, Wayne, Pa., 2009). E. coli, MDRAB, P. aeruginosa, MRSA, MSSA, S. epidermidis and VRE were used for initial evaluation. From this screen, compound 15 was determined to be the lead compound and had MIC values (μg/mL) of 2, 2, 1, 0.5, 0.25, and 1 against E. coli, MDRAB, MRSA, VRE, S. Epidermidis and MSSA.
(§2) S. aureus (ATCC #29213), S. epidermidis (ATCC #29886), MRSA (ATCC # BAA-44), MDRAB (ATCC # BAA-1605), vancomycin resistant Enterococcus faecium (VRE) (ATCC #51559) and E. coli (ATCC #35695) were obtained from the ATCC. Mechanically difibrinated sheep blood (DSB100) was obtained from Hemostat Labs. Mueller-Hinton medium was purchased from Fluka (#70192).
(§3) Broth Microdilution Method for MIC Determination.

Assay [2] relates to MDRAB. The experiment in a line: Broth microdilution MIC. The format is cell-based. As for the experimental part:
as §1, §2, §3

Assay [3] has as its system S. epidermidis. The assay can be described thus: Broth microdilution MIC. The settings on record: Staphylococcus epidermidis, read-out: MIC. In kind it is cell-based. The procedure: as §1, §2, §3
A further assay has as its system MSSA. The experiment in a line: Dispersion of pre-formed biofilms. In kind it is cell-based, S. aureus. The settings on record: Staphylococcus aureus, read-out: EC50, 50% dispersion of a pre-formed biofilm. As for the experimental part: (§4) The ability of 15 and 19 to disperse pre-formed biofilms was also determined for all of the aforementioned bacterial strains (both marine and terrestrial). To quantify this effect, the EC50 value of each compound against each bacterial strain was determined, where EC50 is defined as the concentration of compound that elicits 50% dispersion of a pre-formed biofilm. Both compounds are able to disperse pre-formed biofilms at low micromolar concentrations. These concentrations are also microbicidal to planktonic bacteria. […]
(§5) Preformed Biofilms: Dispersion assays were performed by taking an overnight culture of bacterial strain and subculturing it at an OD600 of 0.01 into the necessary medium (brain heart infusion for E. faecium, tryptic soy broth with a 0.5% glucose supplement (TSBG) for MRSA, S. aureus and S. epidermidis, Luria-Bertani (LB) medium for MDRAB and E. coli, and tryptic soy broth with a 0.5% glucose supplement and a 3.0% NaCl supplement (TGN) for R. salexigens, V. cholerae, V. vulnificus and L. anguillarum.) The resulting bacterial suspension was aliquoted (100 μL) into the wells of a 96-well PVC microtiter plate. […] Biofilm dispersion was quantitated by measuring the OD540 of each well in which a negative control lane wherein no biofilm was formed served as a background and was subtracted out.

Assay [4] relates to E. coli. The assay can be described thus: Dispersion of pre-formed biofilms. The conditions noted are these: Escherichia coli, read-out: EC50, 50% dispersion of a pre-formed biofilm. In kind it is cell-based. As for the experimental part:
(§6) The ability of 15 and 19 to disperse pre-formed biofilms was also determined for all of the aforementioned bacterial strains (both marine and terrestrial). To quantify this effect, the EC50 value of each compound against each bacterial strain was determined, where EC50 is defined as the concentration of compound that elicits 50% dispersion of a pre-formed biofilm. Both compounds are able to disperse pre-formed biofilms at low micromolar concentrations. These concentrations are also microbicidal to planktonic bacteria.
(§7) Procedure to Determine the Dispersal Effect of Test Compounds on E. faecium (VRE), MRSA, S. aureus, S. epidermidis, E. coli, R. salexigens, V. cholerae, V. vulnificus and L. anguillarum
(§8) Preformed Biofilms: Dispersion assays were performed by taking an overnight culture of bacterial strain and subculturing it at an OD600 of 0.01 into the necessary medium (brain heart infusion for E. faecium, tryptic soy broth with a 0.5% glucose supplement (TSBG) for MRSA, S. aureus and S. epidermidis, Luria-Bertani (LB) medium for MDRAB and E. coli, and tryptic soy broth with a 0.5% glucose supplement and a 3.0% NaCl supplement (TGN) for R. salexigens, V. cholerae, V. vulnificus and L. anguillarum.) The resulting bacterial suspension was aliquoted (100 μL) into the wells of a 96-well PVC microtiter plate. Plates were then wrapped in GLAD Press n' Seal® followed by an incubation under stationary conditions at 37° C. to establish the biofilms. After 24 h, the medium was discarded from the wells and the plates were washed thoroughly with water. Stock solutions of predetermined concentrations of the test compound were then made in the necessary medium. These stock solutions were aliquoted (100 μL) into the wells of the 96-well PVC microtiter plate with the established biofilms. Medium alone was added to a subset of the wells to serve as a control. Sample plates were then incubated for 24 h at 37° C. After incubation, the medium was discarded from the wells and the plates were washed thoroughly with water. Plates were then stained with 100 μL of 0.1% solution of crystal violet (CV) and then incubated at ambient temperature for 30 min. Plates were washed with water again and the remaining stain was solubilized with 200 μL of 95% ethanol. A sample of 125 μL of solubilized CV stain from each well was transferred to the corresponding wells of a polystyrene microtiter dish. Biofilm dispersion was quantitated by measuring the OD540 of each well in which a negative control lane wherein no biofilm was formed served as a background and was subtracted out.

Assay [5] concerns MDRAB. The experiment in a line: Dispersion of pre-formed biofilms. The format is cell-based. The settings on record: read-out: EC50, 50% dispersion of a pre-formed biofilm. The procedure:
as §6, §7, §8

The subject of assay [6] is S. epidermidis. The assay can be described thus: Dispersion of pre-formed biofilms. The format is cell-based. The conditions noted are these: Staphylococcus epidermidis, read-out: EC50, 50% dispersion of a pre-formed biofilm. As for the experimental part:
as §6, §7, §8

For a further assay, the system named is V. cholerae. The assay can be described thus: Dispersion of pre-formed biofilms. In kind it is cell-based. The conditions noted are these: Vibrio cholerae, read-out: EC50, 50% dispersion of a pre-formed biofilm. As for the experimental part:
as §6, §7, §8

A further assay has as its system V. vulnificus. The assay can be described thus: Dispersion of pre-formed biofilms. In kind it is cell-based. The conditions noted are these: Vibrio vulnificus, read-out: EC50, 50% dispersion of a pre-formed biofilm. As for the experimental part:
as §6, §7, §8

Another assay deals with VRE. The assay can be described thus: Dispersion of pre-formed biofilms. In kind it is cell-based, E. faecium (VRE). The settings on record: Enterococcus, read-out: EC50, 50% dispersion of a pre-formed biofilm. The procedure:
as §4, §5

A short description of assay [7]: Dye dispersion assay from synthetic vesicles. The conditions noted are these: 5 minutes. The procedure:
Finally, given that active compounds are characterized by a polar head group and a lipophilic tail, it was probed whether compounds 15 and 19 were eliciting their activity via a pore forming mechanism. Compound 1 was used as a control. This was probed via a dye dispersion assay from synthetic vesicles (Liu et al., J. Am. Chem. Soc., 2001, 123, 7553-7559). Two types of vesicles were prepared, one containing 1-palmitoyl-2-oleoyl-sn-glycero-3-phosphocholine (POPC) and the other containing 1-palmitoyl-2-oleoyl-sn-glycero-3-phosphoglycerol (POPG). POPC mimics typical cell membranes encountered for mammalian red blood cells, while POPG mimics the negatively charged lipids encountered in bacterial membranes. In 5 minutes, at 25 μM, compounds 15 and 19 elicited 20% dye leakage from the POPG vesicles while they elicited 10% and 15% dye leakage from the POPC vesicles respectively. However, in 5 minutes at 500 μM, compounds 15 and 19 elicited 78% and 85% dye leakage from the POPG vesicles respectively. In 5 minutes at 25 μM, control compound 1 elicited 9% and 18% leak dye leakage from the POPC and POPG vesicles respectively, while in 5 minutes at 500 μM 1 elicited 15% and 50% leakage from the POPC and POPG vesicles. Given this differential response, and without wishing to be bound by theory, it is likely that compounds 15 and 19 are inducing microbicidal activity through a simple pore-forming mechanism.

For a further assay, the system named is Vibrio vulnificus. The assay can be described thus: Marine bacteria microdilution MIC. The conditions noted are these: V. vulnificus.
Another assay deals with Listonella anguillarum. The assay can be described thus: Marine bacteria microdilution MIC. The settings on record: L. anguillarum.
The subject of assay [8] is Rhodospirillum salexigens. The experiment in a line: Marine bacteria microdilution MIC. The conditions noted are these: R. salexigens.

Consider `CCCCCCc1[nH]c(N)nc1CCCCCc1ccccc1` [Compound 19, 5-hexyl-4-(5-phenylpentyl)-1H-imidazol-2-amine], for which the MIC against E. coli [1] worked out at 2 µg/mL (≈ 6.38 µM); in the assay with MDRAB [2], 4 µg/mL (≈ 12.8 µM); in the assay with S. epidermidis [3], 0.5 µg/mL (≈ 1.59 µM); with Vibrio vulnificus (Vibrio vulnificus), 2.2 µg/mL (≈ 7.02 µM); against Listonella anguillarum (Vibrio anguillarum) it was 2.2 µg/mL (≈ 7.02 µM); in assay [8] it was 1.09 µg/mL (≈ 3.48 µM). Further, in assay [8] (Rhodothalassium salexigens), the MIC came out at 1.1 µg/mL (≈ 3.51 µM). Further, the EC50 in the assay on MSSA is 26.1 ± 0.7 µM; with E. coli [4], 42.5 ± 6.1 µM; with MDRAB [5] it was 11.1 ± 0.1 µM; in the assay on S. epidermidis [6], 17.7 ± 0.3 µM; with V. cholerae, 14.7 ± 1.8 µM; in the assay with V. vulnificus, 3.2 ± 1.3 µM. Moreover, the EC50 in the assay with VRE is 14.1 ± 0.2 µM. Also, the dye leakage was determined as 15% in assay [7] (POPC vesicles, 25 μM); 20% in assay [7] (POPG vesicles, 25 μM); 85% in assay [7] (POPG vesicles, 500 μM).
For the compound `CCCCCc1[nH]c(N)nc1CCCCCc1ccccc1` [Compound 15, 5-pentyl-4-(5-phenylpentyl)-1H-imidazol-2-amine], the MIC in the assay on E. coli [1] is 2 µg/mL (≈ 6.68 µM); with MDRAB [2], 2 µg/mL (≈ 6.68 µM); in the assay with S. epidermidis [3] it was 0.25 µg/mL (≈ 0.835 µM); in the assay on Vibrio vulnificus, 2.10 µg/mL (≈ 7.01 µM); with Vibrio vulnificus (Vibrio vulnificus) it was 2.1 µg/mL (≈ 7.01 µM); in the assay with Listonella anguillarum, 2.10 µg/mL (≈ 7.01 µM). Moreover, the MIC is 2.1 µg/mL (≈ 7.01 µM) with Listonella anguillarum (Vibrio anguillarum), 2.10 µg/mL (≈ 7.01 µM) in [8] and 2.1 µg/mL (≈ 7.01 µM) in [8] (Rhodothalassium salexigens). Moreover, the EC50 is 19.9 ± 3.3 µM in the assay with MSSA; 12 ± 1.6 µM in the assay on E. coli [4]; 7.1 ± 1.3 µM in the assay with MDRAB [5]; 24.7 ± 5.8 µM in the assay with S. epidermidis [6]; 7.12 ± 0.3 µM in the assay with V. cholerae; 18.1 ± 2.3 µM in the assay on V. vulnificus. Moreover, in the assay with VRE, the EC50 amounted to 17.3 ± 2.3 µM. Further, the dye leakage in [7] (POPC vesicles, 25 μM) is 10%; in [7] (POPG vesicles, 25 μM), 20%; in assay [7] (POPG vesicles, 500 μM), 78%.
